{
  "source": "patent US9045435B2",
  "about": "“Quinazoline compounds as sodium channel blockers” (Purdue Pharma, L.P., priority 2010, dated 2015)",
  "origin": "cited, not measured here",
  "conditions_in_all_cases": "read-out: TTX IC50; cited from earlier work",
  "key": {"Nav1.2": {"molecular_target": "Nav1.2 (Homo sapiens, UniProt Q99250)", "sequence (Q99250 whole entry, looked up)": "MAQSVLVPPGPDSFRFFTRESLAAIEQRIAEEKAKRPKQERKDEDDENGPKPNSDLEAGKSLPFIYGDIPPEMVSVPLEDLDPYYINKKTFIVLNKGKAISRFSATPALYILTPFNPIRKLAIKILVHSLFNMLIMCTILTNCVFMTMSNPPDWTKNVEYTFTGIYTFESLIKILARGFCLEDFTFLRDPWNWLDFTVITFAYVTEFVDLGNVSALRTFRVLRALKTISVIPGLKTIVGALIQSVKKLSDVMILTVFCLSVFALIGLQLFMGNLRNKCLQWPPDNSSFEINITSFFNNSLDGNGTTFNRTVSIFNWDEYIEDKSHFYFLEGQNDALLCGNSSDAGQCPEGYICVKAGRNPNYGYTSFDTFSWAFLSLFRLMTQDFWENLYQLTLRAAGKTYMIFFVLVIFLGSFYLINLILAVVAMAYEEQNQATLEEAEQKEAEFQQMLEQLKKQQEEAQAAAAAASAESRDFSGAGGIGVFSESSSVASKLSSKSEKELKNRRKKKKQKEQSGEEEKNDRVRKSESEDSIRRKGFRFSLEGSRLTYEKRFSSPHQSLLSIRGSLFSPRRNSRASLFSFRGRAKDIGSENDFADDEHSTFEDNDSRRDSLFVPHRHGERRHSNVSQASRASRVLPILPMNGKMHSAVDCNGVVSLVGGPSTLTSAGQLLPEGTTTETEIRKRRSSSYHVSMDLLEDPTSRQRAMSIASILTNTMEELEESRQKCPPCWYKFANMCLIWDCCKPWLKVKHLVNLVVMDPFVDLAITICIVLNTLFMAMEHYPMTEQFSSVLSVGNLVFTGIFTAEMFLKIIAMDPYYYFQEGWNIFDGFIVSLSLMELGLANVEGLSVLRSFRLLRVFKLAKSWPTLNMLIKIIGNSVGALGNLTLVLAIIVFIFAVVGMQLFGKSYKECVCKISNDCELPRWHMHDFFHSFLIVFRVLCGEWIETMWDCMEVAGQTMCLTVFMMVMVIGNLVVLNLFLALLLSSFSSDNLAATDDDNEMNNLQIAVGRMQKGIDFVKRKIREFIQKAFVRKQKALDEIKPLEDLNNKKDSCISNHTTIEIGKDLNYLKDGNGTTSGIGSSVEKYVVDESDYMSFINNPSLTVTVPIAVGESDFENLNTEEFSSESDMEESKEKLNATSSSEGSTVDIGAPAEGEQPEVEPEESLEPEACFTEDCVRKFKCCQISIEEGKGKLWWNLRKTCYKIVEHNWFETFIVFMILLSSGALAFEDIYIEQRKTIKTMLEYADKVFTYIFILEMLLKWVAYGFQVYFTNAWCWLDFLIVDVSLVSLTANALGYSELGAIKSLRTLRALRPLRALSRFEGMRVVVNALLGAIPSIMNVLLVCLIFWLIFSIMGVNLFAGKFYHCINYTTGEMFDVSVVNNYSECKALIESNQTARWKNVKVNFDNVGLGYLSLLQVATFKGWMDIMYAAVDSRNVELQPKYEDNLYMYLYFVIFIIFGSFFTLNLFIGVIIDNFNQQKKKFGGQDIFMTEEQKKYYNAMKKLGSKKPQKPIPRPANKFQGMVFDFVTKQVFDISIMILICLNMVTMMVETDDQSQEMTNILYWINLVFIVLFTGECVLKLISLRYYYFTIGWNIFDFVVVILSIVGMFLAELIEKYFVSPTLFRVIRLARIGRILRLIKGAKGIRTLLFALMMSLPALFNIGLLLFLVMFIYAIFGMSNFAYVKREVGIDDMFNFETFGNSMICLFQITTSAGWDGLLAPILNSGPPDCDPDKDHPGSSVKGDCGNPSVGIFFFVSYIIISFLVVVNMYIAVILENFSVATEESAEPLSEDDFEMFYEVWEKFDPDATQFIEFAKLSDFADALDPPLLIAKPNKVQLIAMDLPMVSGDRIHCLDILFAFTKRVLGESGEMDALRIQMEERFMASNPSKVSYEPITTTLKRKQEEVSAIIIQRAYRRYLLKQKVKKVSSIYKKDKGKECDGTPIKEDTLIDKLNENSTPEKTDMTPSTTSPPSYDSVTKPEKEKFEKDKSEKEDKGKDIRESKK"}, "Nav1.3": {"molecular_target": "Nav1.3 (Homo sapiens, UniProt Q9NY46)"}, "Nav1.9": {"molecular_target": "Nav1.9 (Homo sapiens, UniProt Q9UI33)", "sequence (Q9UI33 whole entry, looked up)": "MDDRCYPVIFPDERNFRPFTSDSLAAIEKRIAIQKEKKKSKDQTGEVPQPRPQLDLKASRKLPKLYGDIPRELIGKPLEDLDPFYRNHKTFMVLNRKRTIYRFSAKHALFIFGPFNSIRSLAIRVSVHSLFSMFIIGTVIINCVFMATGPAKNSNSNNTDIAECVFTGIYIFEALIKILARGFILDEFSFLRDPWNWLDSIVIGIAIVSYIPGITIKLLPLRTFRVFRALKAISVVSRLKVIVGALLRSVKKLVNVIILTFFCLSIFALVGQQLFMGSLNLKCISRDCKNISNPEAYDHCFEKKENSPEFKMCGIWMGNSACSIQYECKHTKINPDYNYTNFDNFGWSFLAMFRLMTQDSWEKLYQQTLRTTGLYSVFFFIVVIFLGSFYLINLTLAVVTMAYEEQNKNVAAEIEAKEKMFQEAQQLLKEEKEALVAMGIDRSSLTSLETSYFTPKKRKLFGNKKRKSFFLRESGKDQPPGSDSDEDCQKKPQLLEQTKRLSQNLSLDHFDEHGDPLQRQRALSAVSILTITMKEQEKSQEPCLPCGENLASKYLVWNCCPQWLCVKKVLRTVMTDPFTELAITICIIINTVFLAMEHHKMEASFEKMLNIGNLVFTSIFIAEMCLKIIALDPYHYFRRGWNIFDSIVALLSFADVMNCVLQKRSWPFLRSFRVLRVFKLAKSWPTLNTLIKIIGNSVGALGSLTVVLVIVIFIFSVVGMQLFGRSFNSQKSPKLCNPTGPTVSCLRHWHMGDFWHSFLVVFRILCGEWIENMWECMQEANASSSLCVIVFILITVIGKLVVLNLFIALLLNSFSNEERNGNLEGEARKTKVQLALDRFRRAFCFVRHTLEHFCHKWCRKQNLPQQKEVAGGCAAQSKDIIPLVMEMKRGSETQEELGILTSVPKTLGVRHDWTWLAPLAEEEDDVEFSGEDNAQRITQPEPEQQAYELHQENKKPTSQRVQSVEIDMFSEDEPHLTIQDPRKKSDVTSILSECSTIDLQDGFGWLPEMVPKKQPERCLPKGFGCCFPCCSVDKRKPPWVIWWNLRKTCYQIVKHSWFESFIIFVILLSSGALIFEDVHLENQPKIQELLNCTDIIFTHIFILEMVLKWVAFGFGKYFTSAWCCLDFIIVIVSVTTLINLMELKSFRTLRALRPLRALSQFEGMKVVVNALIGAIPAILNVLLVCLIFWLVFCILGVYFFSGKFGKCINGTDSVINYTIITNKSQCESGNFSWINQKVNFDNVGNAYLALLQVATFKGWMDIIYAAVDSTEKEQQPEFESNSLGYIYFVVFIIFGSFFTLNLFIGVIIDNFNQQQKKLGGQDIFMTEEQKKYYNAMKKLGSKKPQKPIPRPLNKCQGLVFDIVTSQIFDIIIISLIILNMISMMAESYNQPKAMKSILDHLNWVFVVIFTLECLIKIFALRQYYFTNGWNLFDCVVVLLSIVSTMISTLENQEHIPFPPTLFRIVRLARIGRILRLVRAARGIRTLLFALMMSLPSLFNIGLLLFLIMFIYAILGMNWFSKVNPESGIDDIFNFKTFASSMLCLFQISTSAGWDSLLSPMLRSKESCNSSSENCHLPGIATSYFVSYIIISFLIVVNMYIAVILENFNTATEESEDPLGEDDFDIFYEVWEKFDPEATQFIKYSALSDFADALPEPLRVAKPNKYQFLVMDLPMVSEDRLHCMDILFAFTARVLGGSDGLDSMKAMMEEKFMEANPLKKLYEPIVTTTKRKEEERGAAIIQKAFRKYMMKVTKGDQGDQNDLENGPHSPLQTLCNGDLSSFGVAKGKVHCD"}, "Nav1.6": {"molecular_target": "Nav1.6 (Homo sapiens, UniProt Q9UQD0)"}, "Nav1.8": {"molecular_target": "Nav1.8 (Homo sapiens, UniProt Q9Y5Y9)"}, "Nav1.1": {"molecular_target": "Nav1.1 (Homo sapiens, UniProt P35498)"}},
  "data": [
    {"smiles": "NC1=N[C@H](O)[C@H]2[C@H]3O[C@]4(O)O[C@@H]([C@@H](O)[C@@]2(N1)[C@@H]4O)[C@]3(O)CO", "note": "[TTX, tetrodotoxin]", "values": [
      {"measurement": "IC50", "setting": "Nav1.2", "value": 10, "unit": "nM"},
      {"measurement": "IC50", "setting": "Nav1.3", "value": 15, "unit": "nM"},
      {"measurement": "IC50", "setting": "Nav1.9", "value": 1000, "unit": "nM"},
      {"measurement": "IC50", "setting": "Nav1.6", "value": 6, "unit": "nM"},
      {"measurement": "IC50", "setting": "Nav1.8", "value": 50000, "unit": "nM"},
      {"measurement": "IC50", "setting": "Nav1.1", "value": 10, "unit": "nM"}
    ]}
  ]
}
